Reference: patent US11149027B2, “Heterocyclic compound” (Sumitomo Chemical Company, Limited, priority 2016, dated 2021)

Key:
[1] = tested on: houseflies (Musca domestica); experiment: Test Example 10: treated filter paper with sucrose, houseflies; assay type: in vivo; conditions: 500 ppm, 0.7 ml on filter paper with sucrose, female adult, after 24 hours
Experimental: (§1) Test compounds are made to a formulation according to a similar method to that described in the Formulation example 5, and thereto is added water to prepare a diluted solution containing a prescribed concentration of the test compound.
A filter paper having a diameter of 5.5 cm in diameter is spread on the bottom of the cup, and 30 mg of sucrose is placed on the filter paper, and then 0.7 ml of the diluted solutions are added dropwise to the filter paper. Ten (10) houseflies (Musca domestica) female adult are released into the cup. After 24 hours, the number of the died insects is counted, and the mortality of insects is calculated by the following equation. Mortality (%)=(Number of died insects/test insects)×100

[2] = tested on: brown planthoppers (Nilaparvata lugens); experiment: Test Example 4: root uptake by rice seedling from diluted solution, brown planthoppers; assay type: in vivo; conditions: 1000 ppm, 5 mL diluted solution under rice seedling, third instar larvae released after 7 days, examined after 6 days
Experimental: as §1
The diluted solution 5 mL is added to one cup, and Rice (Oryza sativa) seedling (on the developmental stage of the second true leaf) is planted in the other cup with a hole on the bottom and the other cup is placed on the cup. After 7 days, 20 brown planthoppers (Nilaparvata lugens) at the third instar larval stage are released onto the seedling. After 6 days, the number of the surviving insects is examined, and the mortality is calculated by the following equation. Mortality (%)={1−Number of surviving insects/20}×100

| SMILES | mortality of insects [1] [%] | mortality of insects [2] [%] |
| --- | --- | --- |
| CCS(=O)(=O)c1cccnc1-c1ccc(-n2ccc(C(F)(F)F)n2)nn1 [compound 2] | 100 |  |
| CCS(=O)(=O)c1cccnc1-c1ccc(-n2cnc(C(F)(F)F)n2)nn1 [compound 4] | 100 |  |
| CCS(=O)(=O)c1cccnc1-c1ccc(-n2cnc(C(F)(F)F)c2)nn1 [compound 7] | 100 |  |
| CCS(=O)(=O)c1cccnc1-c1ccc(-n2cc(C(F)(F)F)cn2)nn1 [compound 9] | 100 | ≥ 90 |
